The nature of data set [1]: Solubility in simulated fluids and PBS. Format: physicochemical. The following applies: for solubility: thermodynamic from solid, 25° C. The text has this: According to the well-known standard methods conventional in the art for solubility determination, for example those described in Kems, Edward H. and Di Li (2008). Drug-like Properties: Concepts, Structure Design and Methods: from ADME to Toxicity Optimization. San Diego: Academic Press), the solubility properties of the compounds of the present disclosure were investigated as follows, in testing systems of FaSSGF (pH 1.6) (Biorelevant, Fasted State Simulated gastric fluids), FeSSIF (pH 5.8) (Biorelevant, Fed State Simulated Intestinal Fluid), FaSSIF (pH 6.5) (Biorelevant, Fasted State Simulated Intestinal Fluid) and PBS buffer (Hyclone, Cat No. SH30256.01B).
Accurately weighed ˜1 mg of test compound dry powder was charged into a glass bottle, and added an appropriate volume of each of the above test system solutions, to prepare a 4 mg/mL working solution. The sample bottle was placed on a shaker at room temperature (25° C.) and shook at 1000 rpm for 1 hour, then stood overnight for equilibrium. All samples were centrifuged at 12000 rpm at 25° C. for 10 minutes. Solutions of different concentrations for each compound were prepared in DMSO as the standard solutions. 580 μL of 20% (v/v) acetonitrile aqueous solution (containing 40 ng/mL tolbutamide as internal standard) was added into each well of three microplates, and mixed uniformly. 20 μL of 4 mg/mL working solution or standard solution was added to the wells of the first microplate and mixed uniformly, from which 20 μL was taken and added to the corresponding well of the second microplate, and mixed uniformly, from which again 20 μL was taken from each well and added to the corresponding wells of the third microplate, and mixed uniformly. Mass spectrometry was adopted to analyze the samples (LC-MS/MS-014, API4000), a standard curve was developed based on the concentrations of the standard solutions, and the solubility of the test compound was calculated.

Data set [2] in a line: Metabolic stability in liver microsomes. The settings on record: pH 7.4; for half-life at 1 µM: read-out: T½. It counts as in vitro ADME. The text has this:
(§1) According to standard methods conventional in the art for in vitro metabolic stability studies, for example those protocols described in Kems, Edward H. and Di Li (2008). Drug-like Properties: Concepts. Structure Design and Methods: from ADME to Toxicity Optimization. San Diego: Academic Press; Di, Li et al., Optimization of a Higher Throughput Microsomal Stability Screening Assay for Profiling Drug Discovery Candidates, J. Biomol. Screen. 2003, 8(4), 453., the metabolic stability test in liver microsomes of the present compound was performed analogously as follows.
(§2) The in vitro metabolic stability of the compound in 5 species (mouse, rat, dog, monkey, and human) was evaluated by liver microsomal stability test. 0.1M potassium phosphate buffer solution (pH 7.4, containing 1.0 mM EDTA) was prepared. The test compound and the control compound were prepared into a 10 mM DMSO solution, and then 10 μL of the 10 mM DMSO compound solution was added to 190 μL of acetonitrile to prepare a 500 μM compound solution. Liver microsomes (Sekisui XenoTech, LLC., human liver microsomes, cat. #H0610; Beagle dog liver microsomes, cat. #D1000; cynomolgus monkey liver microsomes, cat. #P2073; rat liver microsomes, cat. #R1073; mouse Liver microsomes, cat. #M1000) were taken and slowly melted on ice, then 18.75 μL of the liver microsome solution (20 mg/mL) and 1.5 μL of 500 μM compound solution were added to 479.75 μL of 0.1M potassium phosphate buffer solution to prepare a 0.75 mg/mL liver microsome working solution with a concentration of 1.5 μM compound. 6 mM NADPH (SIGMA, cat. #V900362) aqueous solution was prepared. 0.2 mL 2 mg/mL internal standard stock solution (imipramine solution in acetonitrile) was added to 1000 mL acetonitrile (SIGMA, cat. #271004) to prepare the reaction stop solution and stored at 4° C.
Six deep-well plates were labeled as T0, T5, T15, T30, T45 and NCF60 (negative control, without NADPH). 30 μL of […] control compound or test compound solution in 0.75 mg/mL liver microsome working solution was added to each well of the corresponding plates. After being sealed with film, all the microplates were placed in a 37° C. water bath to preheat for 5 minutes, and 6 mM NADPH solution was placed in a 37° C. water bath to preheat for 5 minutes. Then 15 μL of NADPH solution was added to each cell successively in reverse time order, that is, first adding the T45 plate, 15 minutes later the T30 plate, 15 minutes later again the T15 plate, and 10 minutes later gain the T5 plate. NCF60 plate was not added with NADPH but 15 μL of deionized water. At this time, to the TO plate were added 135 μL of ice-cooled reaction stop solution and 15 μL of NADPH solution. By the end of the reaction, 135 μL of ice-precooled reaction stop solution was added successively to each well of the T5, T15, T30, and T45 plates. All samples were centrifuged at 4° C. at 600 rpm for 10 minutes, and then at 5594 g for 15 minutes (Thermo Multifugex 3R). Six 96-well plates were respectively labeled and added 50 μL of ultrapure water (Millipore, ZMQS50F01) to each well, then 50 μL of the centrifuged supernatant was added to the corresponding well of the corresponding plate, for LC-MS/MS-014 (API4000), UPLC-MS/MS-11 (API4000), LC-MS/MS-034 (API-6500+) analysis. The concentration (C0) of the test compound at TO time point was taken as 100%, and the concentrations at other incubation time points were converted into residue percentages.
(§3) The natural logarithm of the residue percentage at each time point was subjected to linearly regression as a factor of incubation time to obtain Slope k, and then the liver microsome clearance rate (CLint^mic) and in vitro half-life (T½) were calculated according to the following formula: […]
(Microsomes from liver hold many membrane-bound enzymes, among them those of drug oxidation.)

A short description of data set [3]: Metabolic stability in liver microsomes. Format: in vitro ADME, cynomolgus monkey. The following applies: pH 7.4, monkey liver microsomes; for half-life at 1 µM: read-out: T½.
From the text: as §1, §2
Six deep-well plates were labeled as T0, T5, T15, T30, T45 and NCF60 (negative control, without NADPH). 30 μL of […] control compound or test compound solution in 0.75 mg/mL liver microsome working solution was added to each well of the corresponding plates. After being sealed with film, all the microplates were placed in a 37° C. water bath to preheat for 5 minutes, and 6 mM NADPH solution was placed in a 37° C. water bath to preheat for 5 minutes. Then 15 μL of NADPH solution was added to each cell successively in reverse time order, that is, first adding the T45 plate, 15 minutes later the T30 plate, 15 minutes later again the T15 plate, and 10 minutes later gain the T5 plate. […]
as §3

Where [4] appears, read: PBS buffer, aqueous buffer, PBS pH 7.4, read-out: Solubility PBS (pH 7.4).
The mark [5] stands for this setting: fassgf or other biorelevant, FaSSGF pH 1.6, read-out: Solubility FaSSGF (pH 1.6).
The mark [6] stands for this setting: FaSSIF pH 6.5, read-out: Solubility FaSSIF (pH 6.5).
Where [7] appears, read: FeSSIF pH 5.8, read-out: Solubility FeSSEF (pH 5.8).

In brackets after ≈: the same amount, converted by molar mass. Where two headings read alike, the source gives them in different places.

In general, solubility refers to the dissolved amount per volume that the medium holds. In general, CLint scaled refers to a measure of how fast metabolising enzymes remove a compound, apart from limits set by blood flow. Consider `COc1ccc(C(=O)Nc2ccc(Oc3cc4cnn(C)c4cc3-c3cn[nH]c3)c(F)c2)c(=O)n1-c1ccc(F)cc1` [Example 12, N-(3-fluoro-4-(1-methyl-6-(1H-pyrazol-4-yl)-1H-indazol-5-yloxy)phenyl)-1-(4-fluorophenyl)-6-methoxy-2-oxo-1,2-dihydropyridine-3-carboxamide], for which the solubility is 0.01 µg/mL (≈ 0.0176 µM) in data set [1] (setting [4]), 27.7 µg/mL (≈ 48.7 µM) in data set [1] (setting [5]), 5.47 µg/mL (≈ 9.62 µM) in data set [1] (setting [6]) and 53.3 µg/mL (≈ 93.7 µM) in data set [1] (setting [7]). The “solubility compared with Merestinib” value in data set [1] (statement in words) is “significantly improved solubility as compared with Merestinib”. The CLint scaled at 1 µM was 46.5 mL/min/kg in data set [2] (Beagle, dog liver microsomes); 6.03 mL/min/kg in data set [2] (human liver microsomes); 63.3 mL/min/kg in data set [2] (mouse liver microsomes); 74.4 mL/min/kg in data set [2] (rat liver microsomes); 36.2 mL/min/kg in data set [3]. The half-life at 1 µM in data set [2] (Beagle, dog liver microsomes) stood at 1.24 h; in data set [2] (human liver microsomes) it was 4.81 h; in data set [2] (mouse liver microsomes), 0.653 h; in data set [2] (rat liver microsomes), 1.22 h; in data set [3], 0.933 h.
Take `Cc1ccc(C(=O)Nc2ccc(Oc3cc4cnn(C)c4cc3-c3cn[nH]c3)c(F)c2)c(=O)n1-c1ccc(F)cc1` [Merestinib, reference compound]: the solubility was 0.02 µg/mL (≈ 0.0362 µM) in data set [1] (setting [4]), 19.3 µg/mL (≈ 34.9 µM) in data set [1] (setting [5]), 3.07 µg/mL (≈ 5.56 µM) in data set [1] (setting [6]) and 33.7 µg/mL (≈ 61 µM) in data set [1] (setting [7]). For the same molecule, the CLint scaled at 1 µM in data set [2] (Beagle, dog liver microsomes) is 38.4 mL/min/kg; in data set [2] (human liver microsomes), 22 mL/min/kg; in data set [2] (mouse liver microsomes) it was 90.3 mL/min/kg; in data set [2] (rat liver microsomes) it was 105 mL/min/kg; in data set [3] it was 81 mL/min/kg. Moreover, the half-life at 1 µM in data set [2] (Beagle, dog liver microsomes) came to 1.5 h; in data set [2] (human liver microsomes) it was 1.32 h; in data set [2] (mouse liver microsomes), 0.459 h; in data set [2] (rat liver microsomes), 0.867 h; in data set [3], 0.417 h.

Values taken from US11952364B2, “TRK inhibitors useful as anticancer drugs” (TYLIGAND BIOSCIENCE (SHANGHAI) LIMITED, priority 2018, dated 2024).
